According to patent US11708357B2, “Crystal form of pyrrolidinyl urea derivative and application thereof” (ZHANGZHOU PIEN TZE HUANG PHARMACEUTICAL CO., LTD., priority 2020, dated 2023):

Assays:
[1] = In vivo pharmacokinetic study in rats after single administration; conditions: male, Sprague Dawley, rat, plasma, 300 mg/kg, 300 mpk oral administration
Description: Male SD rats were used as test animals, and the concentration of the compound in blood was determined after single administration to evaluate the pharmacokinetic behavior.
Sprague Dawley rats (male, 200-300 g, 7-9 weeks, Shanghai Charles River Laboratory Animal Co., Ltd.)
The pharmacokinetic characteristics of the test compound in rodents after intravenous injection and oral administration were tested by standard protocols, in the experiment, the test compound was prepared into a clear solution or homogeneous suspension, and administered to the rats by single intravenous injection and oral administration. In the intravenous injection group, the menstruum was a certain proportion of ethanol and physiological saline solution or a certain proportion of dimethyl sulfoxide in HP-β cyclodextrin solution (the pH was adjusted to 3-4), the mixture was vortexed and stirred to prepare 1 mg/mL clear solution, then filtered with microporous membrane for later use; in the oral administration group, the menstruum was a certain proportion of sodium carboxymethyl cellulose solution or a certain proportion of dimethyl sulfoxide in HP-β cyclodextrin solution (the pH was adjusted to about 4), after the test compound was mixed with the solvent, the mixture was vortexed and stirred to prepare 30 mg/mL homogeneous suspension for later use. After 2 mg/kg intravenous administration or 300 mg/kg oral administration to rats, a certain amount of whole blood samples were collected, centrifuged at 3000 g for 15 minutes, the supernatant was separated to obtain the plasma samples; then an acetonitrile solution containing internal standard with a volume 3 times that of the plasma sample was added to precipitate proteins, and then centrifuged; the supernatant was separated, and water with a volume twice that of the supernatant was added to the supernatant, which was then centrifuged again; the supernatant was collected for analysis; LC-MS/MS analysis method was used to quantitatively analyze the blood drug concentration, and Phoenix WinNonlin software (Pharsight, USA) was used to calculate the pharmacokinetic parameters, such as peak concentration, time to peak concentration, clearance rate, half-life, area under the concentration-time curve, bioavailability, etc.
(§1) Among them, C0 is the initial concentration, T1/2 is the elimination half-life, Vdss is the steady-state apparent volume of distribution, Cl is the total clearance rate, AUC0-inf is the area under the plasma drug concentration-time curve from time 0 to infinity, Cmax is the peak concentration, Tmax is the time to peak concentration.

[2] = In vivo pharmacokinetic study in beagle dogs after single administration; conditions: male, dog, plasma, 10 mg/kg, 10 mpk oral administration
Description: Male beagle dogs were used as test animals, the concentration of the compound in blood after single administration was determined to evaluate the pharmacokinetic behavior.
Beagle dogs (Male, 6-12 kg, more than 6 months, Beijing Marshall Biotechnology Co., Ltd.).
The objective of the test was to study the pharmacokinetic characteristics of the test compound in non-rodent after intravenous injection and oral administration. In the experiment, the test compound was prepared into a clear solution or homogeneous suspension and administered to the beagle dogs by single intravenous injection or oral administration. In the intravenous injection group, the menstruum was a certain proportion of dimethyl sulfoxide in HP-β-cyclodextrin solution or a certain proportion of ethanol, polyethylene glycol 400 and physiological saline solution, the mixture was vortexed and subjected to ultrasonic treatment to prepare 2 mg/mL clear solution, then filtered with microporous membrane for later use; in the oral administration group, the menstruum was a certain proportion of dimethyl sulfoxide in HP-β-cyclodextrin solution or a certain proportion of sodium carboxymethyl cellulose solution, the test compound was mixed with the menstruum, vortexed and subjected to ultrasonic treatment to prepare 2 mg/mL homogeneous suspension for later use. After 2 mg/kg intravenous administration or 10 mg/kg oral administration to the Beagle dogs, a certain amount of whole blood samples were collected, centrifuged at 3000 g for 10 minutes, and the supernatant was separated to obtain plasma samples; then an acetonitrile solution containing internal standard with a volume 10 times that of the plasma sample was added to precipitate proteins, and then centrifuged; the supernatant was separated for analysis; LC-MS/MS analysis method was used to quantitatively analyze the blood drug concentration, and Phoenix WinNonlin software (Pharsight, USA) was used to calculate the pharmacokinetic parameters, such as peak concentration, time to peak concentration, clearance rate, half-life, area under the concentration-time curve, bioavailability, etc.
as §1

[3] = Solid stability test (XRPD and HPLC purity); format: physicochemical
Description: Samples placed under high temperature and high humidity conditions were sealed with aluminum foil paper and small holes were punched in the aluminum foil paper to ensure that the sample could fully contact with ambient air; […] Samples placed under high temperature (60° C.) and high humidity (92.5% humidity, room temperature) conditions were sampled and tested (XRPD and purity) on the 5th and 10th day. […] Samples placed under the condition of illumination were sampled and tested when the total illuminance reached 1.2×10^6 Lux·hr.

[4] = Hygroscopicity by dynamic vapor sorption (DVS); format: physicochemical; conditions: 25° C. and 80% RH
Description: Instrument model: Intrinsic dynamic vapor sorption instrument
Detection conditions: A sample (10-30 mg) was placed in a DVS sample tray for detection.
Balance: dm/dt=0.002%/min (shortest: 10 min, longest: 180 min)

[5] = 40° C., relative humidity 75%, opened, 30 days
[6] = 40° C., relative humidity 75%, opened, 60 days
[7] = 60° C., relative humidity 75%, opened, 30 days
[8] = 60° C., relative humidity 75%, opened, 60 days
[9] = High humidity (room temperature/relative humidity 92.5%, opened), 5 days
[10] = High humidity (room temperature/relative humidity 92.5%, opened), 10 days
[11] = High temperature (60° C., opened), 5 days
[12] = High temperature (60° C., opened), 10 days
[13] = Illumination (total illuminance 1.2 × 10^6 Lux · hr/near ultraviolet 200 w · hr/m^2, opened)

Structure (SMILES): COCCN1C[C@@H](n2ccc(F)c2)[C@H](NC(=O)Nc2c(C)c(-c3cnc(C4(F)COC4)nc3)nn2-c2ccccc2)C1
- AUC(0-inf) [1]: 276 µM·h
- Cmax [1]: 48.5 µM
- Tmax [1]: 45 min
- bioavailability [1]: 70.5%
- half-life [1]: 195 min
- AUC(0-inf) [2]: 26.4 µM·h
- Cmax [2]: 10.4 µM
- Tmax [2]: 45 min
- bioavailability [2]: 113%
- half-life [2]: 57 min
- Crystal form (XRPD) ([3]; 0 day (initial)): Crystal form E
- Purity ([3]; 0 day (initial)): 98.75%
- Crystal form (XRPD) [3, 5]: Crystal form E
- Purity [3, 5]: 98.14%
- Crystal form (XRPD) [3, 6]: Crystal form E
- Purity [3, 6]: 98.06%
- Crystal form (XRPD) [3, 7]: Crystal form E
- Purity [3, 7]: 98.17%
- Crystal form (XRPD) [3, 8]: Crystal form E
- Purity [3, 8]: 98.22%
- Crystal form (XRPD) [3, 9]: Crystal form E
- Purity [3, 9]: 98.62%
- Crystal form (XRPD) [3, 10]: Crystal form E
- Purity [3, 10]: 98.72%
- Crystal form (XRPD) [3, 11]: Crystal form E
- Purity [3, 11]: 98.74%
- Crystal form (XRPD) [3, 12]: Crystal form E
- Purity [3, 12]: 98.74%
- Crystal form (XRPD) [3, 13]: Crystal form E
- Purity [3, 13]: 98.83%
- Classification of hygroscopicity [4]: hygroscopic (15% > ΔW % ≥ 2%)
- hygroscopic weight gain ΔW [4]: 6.228%
